One data set can be described thus: Log P by HPLC on reversed phase columns (EEC directive 79/831 Annex V.A8; methods [a], [b], [c]).
Details: not given
It is filed as physicochemical. The method in brief:
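Log P derived from retention times, interpolated linearly between bracketing straight-chain alkan-2-ones (3–16 carbons) of known Log P. Eluents ran acetonitrile 10% to 95% against water with 0.1% formic acid ([a], acidic), 0.001 M ammonium acetate ([b], neutral) or 0.1% phosphoric acid ([c], acidic); UV read-out.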
As for `N#Cc1cncn1CC(O)c1ccc(Oc2ccc(Br)nc2)nc1C(F)(F)F` (stereo not shown) [I-154], the LogP was 2.46^[a].

With `N#Cc1cncn1CC(O)(c1ccc(Cl)cc1C(F)(F)F)C1CC1` (stereo not shown) [I-464], the LogP is 2.78^[a]. Turning to `CC(C)(C)CC(O)(Cn1cncc1C#N)c1ccc(C(F)(F)F)cc1F` (stereo not shown) [I-273], the LogP is 3.55^[a].

For the compound `N#Cc1cncn1CC(O)(c1ccc(Cl)cc1Cl)C1CC1` (stereo not shown) [I-304], the LogP is 2.77^[a].

`N#Cc1cncn1CC(O)(c1cccc(Cl)c1F)C1(F)CC1` (stereo not shown) [I-558]: the LogP is 2.21^[a]. Take `CC(=O)c1cncn1CC(C)(O)c1ccc(Oc2ccc(Br)cc2)cc1F` (stereo not shown) [I-190]: the LogP is 2.75^[a]. The same measure, in the same setting: the same measure for `N#Cc1cncn1CC(O)(c1ccc(F)c(F)c1F)C1(Cl)CC1` (stereo not shown) [I-626]: 2.37^[a]; for `N#Cc1cncn1CC(O)(c1ccc(F)c(Br)c1)C1(F)CC1` (stereo not shown) [I-470]: 2.40^[a]. Same read-out and setting: the same measure for `N#Cc1cncn1CC(O)(c1ccc(Cl)cc1Cl)C1(F)CC1` (stereo not shown) [I-237]: 2.51^[a]; for `CC(O)(Cn1cncc1F)c1ccc(Oc2ccc(C(F)(F)F)nc2)nc1C(F)(F)F` (stereo not shown) [I-290]: 2.06^[a]. Same read-out and setting: for `OC(Cn1cncc1Cl)c1ccc(Oc2ccc(Cl)cc2)cc1Cl` (stereo not shown) [I-01] the value was 2.64^[a]; for `N#Cc1cncn1CC(O)(CC1CC1)c1ccc(F)c(F)c1` (stereo not shown) [I-489], 2.30^[a].

As to `CCCC(O)(Cn1cncc1C#N)c1ccc(C(F)(F)F)cc1Cl` (stereo not shown) [I-421], the LogP is 3.23^[a]. For `N#Cc1cncn1CC(O)c1cnc(Oc2ccc(S(F)(F)(F)(F)F)cc2)cc1C(F)(F)F` (stereo not shown) [I-96], the LogP was 3.44^[a]. Same read-out and setting: for `N#Cc1cncn1CC(O)(c1ccc(Cl)cc1Br)C1(Cl)CC1` (stereo not shown) [I-384] the value was 2.78^[a]; for `CC(O)(Cn1cncc1F)c1ccc(Oc2ccc(Br)nc2)nc1C(F)(F)F` (stereo not shown) [I-363], 1.84^[a]. Still for that read-out and setting: the same measure for `CC(C)(C)C(O)(Cn1cncc1C#N)c1ccc(Cl)cn1` (stereo not shown) [I-528]: 2.73^[a]; for `N#Cc1cncn1CC(O)(c1cccc(Cl)c1Cl)C1(Cl)CC1` (stereo not shown) [I-337]: 2.52^[a]; for `CC(=O)OC(Cn1cncc1C#N)c1ccc(Oc2ccc(Cl)cc2)cc1C(F)(F)F` (stereo not shown) [I-86]: 3.7^8[a].

For the compound `OC(Cn1cncc1F)c1cnc(Oc2ccc(OC(F)(F)F)cc2)cc1C(F)(F)F` (stereo not shown) [I-121], the LogP was 2.42^[a]. Still for that read-out and setting: for `OC(Cn1cncc1Cl)c1ccc(Oc2ccc(Cl)cc2)cc1F` (stereo not shown) [I-32] the value was 2.39^[a]; for `CC(C)(C)c1ccc(C(O)(Cn2cncc2C#N)C2(Cl)CC2)c(Cl)c1` (stereo not shown) [I-354], 3.39^[a]. Still for that read-out and setting: the same measure for `N#Cc1ccc(C(O)(Cn2cncc2C#N)C2(F)CC2)c(Cl)c1` (stereo not shown) [I-389]: 2.04^[a]; for `N#Cc1cncn1CC(O)(c1ccc(F)c(Cl)c1F)C1(F)CC1` (stereo not shown) [I-635]: 2.35^[a]; for `N#Cc1cncn1CC(O)c1ccc(Oc2c(F)cc(Cl)cc2F)nc1C(F)(F)F` (stereo not shown) [I-135]: 3.23^[a].

In the case of `CCCC(O)(Cn1cncc1C#N)c1ccc(F)cc1` (stereo not shown) [I-378], the LogP is 2.21^[a]. Same read-out and setting: the same measure for `CC(C)(C)C(O)(Cn1cncc1C#N)c1ccc(Cl)c(Cl)c1` (stereo not shown) [I-456]: 3.16^[a]; for `CC(=O)c1cncn1CC(C)(O)c1ccc(Oc2ccc(C(F)(F)F)cc2)cc1C(F)(F)F` (stereo not shown) [I-207]: 3.27^[a]; for `N#Cc1cncn1CC(O)c1cnc(Oc2ccc(C(F)(F)F)cc2)cc1Br` (stereo not shown) [I-130]: 3.13^[a].

On to `C[Si](C)(C)C#CC(O)(Cn1cncc1C#N)C1(F)CC1` (stereo not shown) [I-600], for which the LogP was 2.45^[a]. The same measure, in the same setting: for `C[Si](C)(C)CC(O)(Cn1cncc1C#N)c1ccc(Cl)cc1` (stereo not shown) [I-224] the value was 3.35^[a]. On the same count and under the same terms, the same measure for `CC(C)(C)CC(O)(Cn1cncc1C#N)c1ccc(C(F)(F)F)cc1Cl` (stereo not shown) [I-268]: 3.85^[a]; for `CCCC(C)C(O)(Cn1cncc1C#N)c1ccc(Cl)cc1` (single isomer, unassigned) [I-328]: 3.15^[a]; for `COCOC(Cn1cncc1C#N)c1ccc(Oc2ccc(Cl)cc2)cc1C(F)(F)F` (stereo not shown) [I-82]: 4.03^[a]. The same measure, in the same setting: for `C=CCC(O)(Cn1cncc1C#N)C1(Cl)CC1` (stereo not shown) [I-669] the value was 1.98^[a]; for `CC(O)(Cn1cncc1Br)c1ccc(Oc2ccc(Cl)cc2)cc1Cl` (stereo not shown) [I-198], 2.75^[a]. In the case of `N#Cc1cncn1CC(O)(c1cc(Cl)c(Cl)c(Cl)c1)C1(F)CC1` (stereo not shown) [I-534], the LogP was 3.03^[a].

On to `N#Cc1cncn1CC(O)(c1cc(Cl)c(Br)cc1Cl)C1(F)CC1` (stereo not shown) [I-684], for which the LogP is 2.86^[a]. In the case of `N#Cc1cncn1CC(O)(c1ccc(C2CC2)cc1Cl)C1CC1` (stereo not shown) [I-406], the LogP is 2.92^[a].

As to `N#Cc1cncn1CC(O)(C#CC1(c2ccc(F)cc2)CC1)C1(Cl)CC1` (stereo not shown) [I-605], the LogP is 2.98^[a]. On the same count and under the same terms, the same measure for `OC(Cn1cncc1Br)c1ccc(Oc2ccc(Br)cc2)cc1C(F)(F)F` (stereo not shown) [I-26]: 3.02^[a]; for `N#Cc1cncn1CC(O)(c1c(Cl)ccc(Cl)c1F)C1(F)CC1` (stereo not shown) [I-564]: 2.39^[a]. Same read-out and setting: for `CC(C)(C)c1ccc(C(O)(Cn2cncc2C#N)C2(Cl)CC2)cc1` (stereo not shown) [I-247] the value was 3.29^[a]; for `N#Cc1cncn1CC(O)(c1ccc(C(F)(F)F)cc1Cl)C1(F)CC1` (stereo not shown) [I-383], 2.75^[a]; for `CC(O)(Cn1cncc1Cl)c1ccc(Oc2ccc(OC(F)(F)F)cc2)cc1Cl` (stereo not shown) [I-158], 3.06^[a]. Still for that read-out and setting: for `N#Cc1cncn1CC(O)(c1ccc(C#CC2CC2)cc1Cl)C1(Cl)CC1` (stereo not shown) [I-361] the value was 3.25^[a]; for `CC(O)(Cn1cncc1Br)c1ccc(Oc2ccc(C(F)(F)F)cc2)cc1C(F)(F)F` (stereo not shown) [I-199], 2.98^[a]; for `CC(O)(Cn1cncc1C(F)(F)F)c1ccc(Oc2ccc(Cl)cc2)cc1F` (stereo not shown) [I-205], 3.83^[a]. Consider `OC(Cn1cncc1Cl)c1ccc(Oc2ccc(C(F)(F)F)cc2)cc1C(F)(F)F` (stereo not shown) [I-35], for which the LogP was 3.00^[a]. Still for that read-out and setting: the same measure for `N#Cc1cncn1CC(O)(c1ccc(Cl)c(F)c1F)C1(Cl)CC1` (stereo not shown) [I-629]: 2.60^[a]; for `C[Si](C)(CCC(O)(Cn1cncc1C#N)C1(F)CC1)c1ccccc1` (stereo not shown) [I-668]: 3.30^[a]; for `N#Cc1cncn1CC(O)(c1cc(F)cc(F)c1Cl)C1(F)CC1` (stereo not shown) [I-569]: 2.26^[a].

With `N#Cc1cncn1CC(O)(c1ccc(Cl)cc1F)C1(F)CC1` (stereo not shown) [I-356], the LogP was 2.36^[a]. On the same count and under the same terms, for `N#Cc1cncn1CC(O)c1cnc(Oc2ccc(Br)cc2)cc1C(F)F` (stereo not shown) [I-134] the value was 2.43^[a]. `N#Cc1cncn1CC(O)(CC1CC1)c1cc(Cl)c(Cl)c(Cl)c1` (stereo not shown) [I-529]: the LogP was 3.22^[a]. Still for that read-out and setting: for `CC(O)(Cn1cncc1Br)c1ccc(Oc2ccc(Cl)cc2)cc1F` (stereo not shown) [I-178] the value was 2.44^[a]; for `N#Cc1cncn1CC(O)c1ccc(Oc2ccc(Cl)cc2)cc1F` (stereo not shown) [I-54], 2.94^[a]; for `CCCCC(O)(Cn1cncc1C#N)c1ccc(C(F)(F)F)cc1F` (stereo not shown) [I-267], 3.35^[a]. On the same count and under the same terms, for `C[Si](C)(C)C#Cc1ccc(C(O)(Cn2cncc2C#N)C2(Cl)CC2)c(Cl)c1` (stereo not shown) [I-366] the value was 4.24^[a]; for `N#Cc1cncn1CC(O)(c1ccc(F)cc1F)C1CCC1` (stereo not shown) [I-447], 2.53^[a]. With `N#Cc1cncn1CC(O)(c1cc(Cl)cc(F)c1F)C1(Cl)CC1` (stereo not shown) [I-611], the LogP was 2.54^[a]. Same read-out and setting: for `OC(Cn1cncc1F)c1ccc(Oc2ccc(C(F)F)cc2)nc1C(F)(F)F` (stereo not shown) [I-148] the value was 2.20^[a]. The same measure, in the same setting: for `N#Cc1cncn1CC(O)(CC1CC1)c1c(F)cc(Cl)cc1F` (stereo not shown) [I-512] the value was 2.67^[a].

In the case of `CCCC(C)CCC(O)(Cn1cncc1C#N)C1(Cl)CC1` (stereo not shown) [I-677], the LogP is 3.69^[a]. The same measure, in the same setting: for `CCc1ccc(C#CC(O)(Cn2cncc2C#N)C2(Cl)CC2)cc1` (stereo not shown) [I-320] the value was 3.11^[a]; for `N#Cc1cncn1CC(O)(c1cc(Cl)cc(Cl)c1F)C1(Cl)CC1` (stereo not shown) [I-609], 2.76^[a]; for `COc1ccc(C(O)(Cn2cncc2C#N)C2(F)CC2)c(Cl)n1` (stereo not shown) [I-549], 1.99^[a]. The same measure, in the same setting: the same measure for `OC(Cn1cncc1Cl)c1ccc(Oc2ccc(Cl)cc2)cc1` (stereo not shown) [I-15]: 2.18^[a]. For `N#Cc1cncn1CC(O)(C#CC1CC1)C1(F)CC1` (stereo not shown) [I-693], the LogP was 1.74^[a].

For `CCOC(Cn1cncc1Br)c1ccc(Oc2ccc(Br)cc2)cc1Br` (stereo not shown) [I-57], the LogP is 4.16^[a].

In the case of `OC(C#CCC1CCCCC1)(Cn1cncc1C(F)(F)F)C1(Cl)CC1` (stereo not shown) [I-601], the LogP is 4.05^[a]. On the same count and under the same terms, for `N#Cc1cncn1CC(O)(c1cc(Cl)c(F)cc1Cl)C1(Cl)CC1` (stereo not shown) [I-581] the value was 2.70^[a].

As for `OC(Cn1cncc1F)c1cnc(Oc2ccc(C(F)F)cc2)cc1C(F)(F)F` (stereo not shown) [I-116], the LogP is 2.11^[a]. Same read-out and setting: the same measure for `CC(O)(Cn1cncc1C#N)c1cnc(Oc2ccc(Cl)nc2)cc1C(F)(F)F` (stereo not shown) [I-360]: 2.43^[a].

Take `N#Cc1cncn1CC(O)(CC1CC1)c1cc(Cl)c(F)c(Cl)c1` (stereo not shown) [I-493]: the LogP is 2.95^[a]. The same measure, in the same setting: for `N#Cc1cncn1CC(O)(c1ccc(Cl)cc1)C1(F)CC1` (stereo not shown) [I-231] the value was 2.27^[a]; for `CC(O)(Cn1cncc1F)c1cnc(Oc2ccc(Cl)cc2)cc1C(F)(F)F` (stereo not shown) [I-240], 2.30^[a].

For `CCCC(O)(Cn1cncc1C#N)c1ccc(F)cc1C(F)(F)F` (stereo not shown) [I-459], the LogP was 2.71^[a]. On the same count and under the same terms, for `N#Cc1cncn1CC(O)(c1ccc(Cl)cc1F)C1CCCCC1` (stereo not shown) [I-482] the value was 3.42^[a]. Still for that read-out and setting: the same measure for `C#CC(O)(Cn1cncc1C#N)C1(Cl)CC1` (stereo not shown) [I-670]: 1.36^[a].

The data set is the same for the next values; noted with them: reversed phase HPLC column; method [a]: LC-UV, acidic range, 0.1% formic acid in water and acetonitrile as eluent (linear gradient from 10% to 95% acetonitrile).
As usually defined, the chromatographic logP is a lipophilicity value derived from retention on a column. The low end stands for lower lipophilicity, the high end for higher lipophilicity. `CCC(=O)c1cncn1CC(=O)c1ccc(Oc2ccc(Br)cc2)cc1C(F)(F)F` [IX-139] gave a chromatographic logP of 3.71. For the compound `N#Cc1cncn1CC(=O)c1cnc(Oc2ccc(C(F)(F)F)nc2)cc1C(F)(F)F` [IX-105], the chromatographic logP worked out at 2.82.

The values are drawn from patent US20200031778A1, “NOVEL 5-SUBSTITUTED IMIDAZOLYLMETHYL DERIVATIVES” (Bayer CropScience Aktiengesellschaft, priority 2016, published 2020).
